Reference: patent US20240263146A1, “HUMAN NSCLC CELL LINES AND USES THEREOF” (SHANGHAI LIDE BIOTECH CO., LTD., priority 2020, published 2024)

Columns and labels:
Test in all cases: cells
[1] = test system: LD1-0006-215676 (EGFR L858R/T790M) cell line; conditions: Homo sapiens, 144 h
Procedure: (§1) The cell lines of the present disclosure (i.e., LD1-0025-200636; LD1-0025-200694; LD1-0006-215676; and LD1-0025-200717) were seeded at 2×10^2 cells/well to 96 well round bottom ultra low attachment plate. The drugs were added into the cell lines and the cells were cultured in 37° C. and 5% CO2 for 6 days. The ATP amount was measured using CellTiter-Glo. The Inhibition rate corresponding to the concentration of the drugs was calculated. The equation for calculating the inhibition rate is as follows: […]
(§2) Inhibition curve was graphed by XLfit(IDBS) and IC50 was calculated.

[2] = test system: LD1-0025-200636 (EGFR WT) cell line; conditions: Homo sapiens, 144 h
Procedure: as §1, §2

[3] = test system: LD1-0025-200694 (EGFR L858R) cell line; conditions: Homo sapiens, 144 h
Procedure: as §1, §2

[4] = test system: LD1-0025-200717 (EGFR 19del, T790M & C797S mutant) cell line; conditions: Homo sapiens, LD1-0025-200717, 144 h
Procedure: as §1, §2

`C=CC(=O)Nc1cc(Nc2nccc(-c3cn(C)c4ccccc34)n2)c(OC)cc1N(C)CCN(C)C` [AZD9291, Osimertinib] gave an IC50 [1] of 0.03 µM, an IC50 [2] of 2.52 µM and an IC50 [3] of 2.67 µM. It also gave an IC50 [4] of 2.01 µM.
